Measured values as given in patent US10093651B2, “Ghrelin O-acyl transferase inhibitors” (Eli Lilly and Company, priority 2015, dated 2018).

Columns and labels:
[1] = target: human GOAT (Homo sapiens (Human), UniProt Q96T53); assay: In vitro cell free human GOAT enzymatic assay; type: biochemical; details: purified GOAT enzyme, ELISA readout of acyl-ghrelin
Description: In Vitro Cell Free Human GOAT Enzymatic Assay
Human GOAT gene (Accession number: NM 001100916) is subcloned to pAN51 baculoviral expression vector. Baculovirus stock is prepared following the Bac-to-Bac Protocol provided by the vendor, Invitrogen, California, USA. Five mililiters of human GOAT baculoviral stock are added to 500 mL SDf cells in HyQ SFX-Insect™ media (HyClone catalog number SF130278.02) at the density of 1×10^6 cells per milliliter in a 2 L Erlenmeyer flask. The flask with human GOAT gene infected Sf9 cells is put on a plate shaker at 120 rpm at 28° C. for 48 hours. After 48 hours incubation, cells are centrifuged at 1,000×g for 10 min at 4° C. The cell pellets are collected and stored at −80° C. in a freezer until ready for further processing.
Preparation of Microsomal Membrane of GOAT Enzyme for the Enzymatic Assay:
One gram cell pellets are suspended in 9 mL chilled homogenization buffer (50 mM Tris-HCl, 250 mM sucrose, adjusted to pH 7.5 and sterile filtered through 0.2 μm Millipore filter). The cell suspension is transferred to a Dounce glass homogenizer. Cell pellets are homogenized with 40 strokes on ice. The homogenate is centrifuged at 3,000 rpm in a Beckman swing bucket rotor at 4° C. for 10 min to remove unbroken cells. The supernatant is collected and centrifuged at 40,000×g for 1 hour at 4° C. The resulting membrane pellet is suspended in the homogenization buffer using a Dounce glass homogenizer and stored at −20° C. in the freezer for the assay. For long term storage of the human GOAT enzyme membrane preparation, the suspended membrane is stored in a −80° C. freezer.
Human GOAT Enzymatic Assay Protocol:
Prepare test compounds in DMSO to make up a 0.2 mM stock solution. Serially dilute the stock solution in DMSO to obtain a ten-point dilution curve with final compound concentrations ranging from 10 μM to 0.5 nM in a 96-well round-bottom plate. Prepare enzyme and substrate solutions in assay buffer (0.02% TWEEN™-20 in 50 mM Tris, pH 7.5/250 mM sucrose/1 mg/mL BSA/10 mM EDTA). Add diluted compound (1 μL) to each well of row A to N of a corresponding low protein binding 384 well plate. Add human GOAT substrate mix (10 μL), consisting of human desacyl-ghrelin-biotin (CPC Scientific Inc., 6.0 μM final), octanoyl-coenzyme A (CoA) (Sigma, 60 μM final) and an AG specific antibody (WO 2006/091381)([…] final), to the compounds. Add GOAT-His/sf9 enzyme preparation, that has been prepared in assay buffer (9 μL), to each well of the plate containing substrate and test compounds resulting in a final concentration of 0.01 μg/mL to initiate the reaction. Incubate the mixture for 1 hour at RT on a gently rotating oscillator. Add 4M guanidine hydrochloride (20 μL) to all wells, mix, and incubate for 3 hours to stop the reaction.
Prepare ELISA plates (STREPTAVIDIN SPECTRAPLATE™ 384, Perkin Elmer) by blocking with 2% Heat-Inactivated FBS in PBS (40 μL) (Invitrogen) blocking buffer for 3 hours. Aspirate the blocking buffer from ELISA plate and add blocking buffer (23 μL) to columns 1-24, rows A-N. Reserve rows O and P for the acylghrelin standard curve. Add the reaction mix (2 μL) to the ELISA plates. Prepare a 10 point standard curve (biotin-labeled octanoyl-ghrelin) by serial 2× dilution in blocking buffer containing 0.2M Guanidine hydrochloride starting at 2.5 pM. Incubate the reaction mixture or biotin-labeled AG standard in the ELISA plate overnight at 4° C. […]

[2] = target: GOAT (Mus musculus (Mouse), UniProt P0C7A3); assay: In vivo dose dependent 3 day BID study for GOAT inhibitor (plasma AG and UAG by ELISA); parameters: species or system male C57BL/6 mice; details: mice, 3 days; for reduction in AG to total ghrelin ratio: compared to vehicle-treated control animals; for decrease of plasma AG / increase of UAG: vs vehicle; for AG (% of control) / AG/Total-ghrelin (% of vehicle control) / UAG (% of vehicle control) / increase of UAG: plasma
Description: Comparing the change in the ratio of AG to total ghrelin in the compound treated group and that of the vehicle treated group reflects the degree of GOAT enzyme inhibition in vivo, due to the dynamic processing of UAG to AG by the GOAT enzyme. In the in vivo pharmacodynamic studies herein, the levels of AG and UAG in plasma and stomach in the vehicle and compound treated groups are measured by ELISA specifically to these two analytes. The total ghrelin level of each sample is computed as the sum of AG and UAG by these ELISA measurements. The ratio of AG to total ghrelin is defined by the level of AG in each sample divided by the level of total ghrelin in the same sample. The levels of AG, UAG and ratio of AG to total ghrelin in the vehicle treated group is computed and set as 100%. The relative change of these parameters in the compound treated group is then computed to determine the effectiveness of the test compound.
In Vivo Dose Dependent 3 Day BID Study for GOAT Inhibitor:E
Purchase male C57BL/6 mice from Harlaan (Indianapolis, Ind.) at 9 weeks of age. House the mice individually in a temperature-controlled (24° C.) facility with a 12 hours light/dark cycle (lights on 2200 h), and allow free access to a standard rodent chow (diet 2014, Harlan) and water. Typically, use the mice when they are 10-13 weeks of age at the time of the study. On day 0 of the experiment, randomize the mice into treatment groups (N=7/group) so each group has similar mean body weights. On day 1 and day 2, treat the animals with vehicle (1% hydroxyethylcellulose, 0.25% TWEEN™ 80, 0.05% antifoam) or test compound prepared in the vehicle as suspension at various dosages by oral gavage at 7 am and 7 pm. On day 3, fast the animals, move them into clean cages and dose with vehicle or the test compound again at 8 am by oral gavage. That same day at 1 pm, sacrifice the animals by decapitation to collect blood. For details of blood collection and plasma treatments see Blood collection and Extraction of Ghrelin from Plasma section below.
Collect approximately 600 μL blood into a pre-weighed EDTA tube containing 600 μL (defined as Vpreservative) freshly-prepared preservative (4 mM PEFABLOC® [4-(2-aminoethyl) benzenesulfonyl fluoride hydrochloride], 72 mM NaCl, 58 mM NaF, 0.032 N hydrochloric acid, pH 3.0) and mix immediately. Weigh the tube again and keep on ice. To accurately determine the exact blood volume of each sample using this blood collection procedure, the weight of the blood for each mouse is computed using the following equation: Weight of Blood=(Weight of the tube containing Blood+preservative)−(Weight of the tube containing preservative) Blood volume (Vblood)=(Weight of blood)/1.06
Note, the density of rodent blood is assumed as 1.06 g/mL.
Within 15 minutes after the blood collection, samples are centrifuged at 5000 rpm at 4° C. for 8 min. Remove plasma (650 μL) to a 5 mL glass tube containing 1 N hydrochloric acid (65 μL), mix and keep on ice.
Ghrelin Extraction by SEP-PAK® Column:
AG and UAG are extracted from plasma using SEP-PAK®_C18 column to remove interference prior to performing the ELISA. The solid phase extraction of AG and UAG peptides by SEP-PAK®_C18 columns can be performed on a vacuum manifold (Waters Corp) or using a peristaltic pump. The sample SEP-PAK®_column extraction procedure is independently applied to the plasma sample obtained from each individual mouse. The general extraction protocol is described as follows.
All solutions used for the entire protocol of the SEP-PAK® column extraction should be at ice cold condition. Wet SEP-PAK®_columns (WAT054960, Waters Corp, Milford Mass.) with 99.9% ACN/0.1% TFA (1 mL of solution of 100 mL ACN/0.1 mL TFA). […] Once liquid is removed from the column, stop the pressure. Equilibrate the columns with 3% ACN/0.1% TFA (I mL of 97 mL water, 3 mL ACN, 0.1 mL TFA). […] Dilute approximately 650 μL acidified plasma (defined as Vplasma added to column) to 1.4 mL ice cold 0.1% TFA. […]

Sequence of human GOAT (Q96T53 whole entry): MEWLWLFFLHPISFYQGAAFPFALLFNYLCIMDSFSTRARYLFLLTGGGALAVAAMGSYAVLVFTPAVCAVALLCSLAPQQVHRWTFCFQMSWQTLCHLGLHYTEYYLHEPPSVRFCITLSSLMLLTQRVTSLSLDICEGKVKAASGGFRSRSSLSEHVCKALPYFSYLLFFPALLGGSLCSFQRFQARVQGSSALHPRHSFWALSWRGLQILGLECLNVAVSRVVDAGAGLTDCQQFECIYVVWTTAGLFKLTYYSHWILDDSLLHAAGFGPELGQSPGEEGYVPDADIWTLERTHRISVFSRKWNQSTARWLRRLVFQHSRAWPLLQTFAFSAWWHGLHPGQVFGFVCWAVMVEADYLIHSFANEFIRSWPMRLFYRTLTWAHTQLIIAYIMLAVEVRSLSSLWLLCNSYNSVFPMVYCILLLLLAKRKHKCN
Sequence of GOAT (P0C7A3 whole entry): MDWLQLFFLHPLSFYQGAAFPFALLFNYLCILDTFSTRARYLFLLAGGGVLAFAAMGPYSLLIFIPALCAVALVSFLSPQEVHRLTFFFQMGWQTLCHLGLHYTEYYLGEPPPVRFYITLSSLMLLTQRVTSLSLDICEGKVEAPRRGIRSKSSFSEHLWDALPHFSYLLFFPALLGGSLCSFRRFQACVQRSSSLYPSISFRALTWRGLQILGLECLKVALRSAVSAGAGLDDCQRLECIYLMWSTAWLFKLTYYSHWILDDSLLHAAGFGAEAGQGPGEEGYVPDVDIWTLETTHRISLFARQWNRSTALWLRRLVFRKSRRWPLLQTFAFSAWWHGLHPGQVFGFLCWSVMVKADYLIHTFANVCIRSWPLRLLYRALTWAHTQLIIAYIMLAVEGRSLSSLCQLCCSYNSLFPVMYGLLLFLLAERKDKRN

Cc1nc(C(F)(F)F)nc(N)c1CCC1CCN(C(=O)[C@H](C)NC(=O)c2ccnn2C)CC1 [Example 2, N-[(1 S)-2-[4-[2-[4-Amino-6-methyl-2-(trifluoromethyl)pyrimidin-5-yl]ethyl]-1-piperidyl]-1-methyl-2-oxo-ethyl]-2-methyl-pyrazole-3-carboxamide]
IC50 [1]: 69.5 ± 0.6 nM | reduction in AG to total ghrelin ratio ([2]; 0.1 mg/kg): 57% | decrease of plasma AG ([2]; 0.1 mg/kg): 40% | reduction in AG to total ghrelin ratio ([2]; 0.3 mg/kg): 62% | decrease of plasma AG ([2]; 0.3 mg/kg): 60% | reduction in AG to total ghrelin ratio ([2]; 1 mg/kg): 79% | decrease of plasma AG ([2]; 1 mg/kg): 56% | reduction in AG to total ghrelin ratio ([2]; 3 mg/kg): 82% | decrease of plasma AG ([2]; 3 mg/kg): 63% | reduction in AG to total ghrelin ratio ([2]; 10 mg/kg): 82% | decrease of plasma AG ([2]; 10 mg/kg): 63% | AG (% of control) ([2]; 0.1 mg/kg oral gavage BID): 60 ± 8 (n = 7) % of control | AG/Total-ghrelin (% of vehicle control) ([2]; 0.1 mg/kg oral gavage BID): 43 ± 3 (n = 7) % of vehicle control | UAG (% of vehicle control) ([2]; 0.1 mg/kg oral gavage BID): 210 ± 43 (n = 7) % of vehicle control | increase of UAG ([2]; 0.1 mg/kg): 2.10 fold | AG (% of control) ([2]; 0.3 mg/kg oral gavage BID): 40 ± 10 (n = 7) % of control | AG/Total-ghrelin (% of vehicle control) ([2]; 0.3 mg/kg oral gavage BID): 28 ± 1 (n = 7) % of vehicle control | UAG (% of vehicle control) ([2]; 0.3 mg/kg oral gavage BID): 222 ± 54 (n = 7) % of vehicle control | increase of UAG ([2]; 0.3 mg/kg): 2.22 fold | AG (% of control) ([2]; 1 mg/kg oral gavage BID): 44 ± 6 (n = 14) % of control | AG/Total-ghrelin (% of vehicle control) ([2]; 1 mg/kg oral gavage BID): 21 ± 1 (n = 14) % of vehicle control | UAG (% of vehicle control) ([2]; 1 mg/kg oral gavage BID): 357 ± 30 (n = 14) % of vehicle control | increase of UAG ([2]; 1 mg/kg): 3.57 fold | AG (% of control) ([2]; 3 mg/kg oral gavage BID): 37 ± 9.6 (n = 14) % of control | AG/Total-ghrelin (% of vehicle control) ([2]; 3 mg/kg oral gavage BID): 18 ± 5 (n = 14) % of vehicle control | UAG (% of vehicle control) ([2]; 3 mg/kg oral gavage BID): 349 ± 41 (n = 14) % of vehicle control | increase of UAG ([2]; 3 mg/kg): 3.49 fold | AG (% of control) ([2]; 10 mg/kg oral gavage BID): 37 ± 9.9 (n = 7) % of control | AG/Total-ghrelin (% of vehicle control) ([2]; 10 mg/kg oral gavage BID): 18 ± 3 (n = 7) % of vehicle control | UAG (% of vehicle control) ([2]; 10 mg/kg oral gavage BID): 378 ± 59 (n = 7) % of vehicle control | increase of UAG ([2]; 10 mg/kg): 3.78 fold

Cc1nc(C(F)(F)F)nc(N)c1CCC1CCN(C(=O)[C@H](C)NC(=O)c2nccnc2Cl)CC1 [Example 15, N-[(1S)-2-[4-[2-[4-Amino-6-methyl-2-(trifluoromethyl)pyrimidin-5-yl]ethyl]-1-piperidyl]-1-methyl-2-oxo-ethyl]-3-chloro-pyrazine-2-carboxamide]
IC50 [1]: 55.7 nM

COc1ccccc1C(=O)N[C@@H](C)C(=O)N1CCC(CCc2c(C)nc(C(F)(F)F)nc2N)CC1 [Example 17, N-[(1S)-2-[4-[2-[4-Amino-6-methyl-2-(trifluoromethyl)pyrimidin-5-yl]ethyl]-1-piperidyl]-1-methyl-2-oxo-ethyl]-2-methoxy-benzamide]
IC50 [1]: 420 nM

Cc1nc(C(F)(F)F)nc(N)c1CCC1CCN(C(=O)[C@H](C)NC(=O)CO)CC1 [Example 18, N-[(1S)-2-[4-[2-[4-Amino-6-methyl-2-(trifluoromethyl)pyrimidin-5-yl]ethyl]-1-piperidyl]-1-methyl-2-oxo-ethyl]-2-hydroxy-acetamide]
IC50 [1]: 276 nM

COC(=O)N[C@@H](C)C(=O)N1CCC(CCc2c(C)nc(C(F)(F)F)nc2N)CC1 [Example 20, Methyl-[(1S)-2-[4-[2-[4-amino-6-methyl-2-(trifluoromethyl)pyrimidin-5-yl]ethyl]-1-piperidyl]-1-methyl-2-oxo-ethyl]carbamate]
IC50 [1]: 615 nM
